{
  "source": "patent US9273095B2",
  "about": "“Antibiotic peptide and preparation method therefor and application therefor” (priority 2011, dated 2016)",
  "assay_type_in_all_cases": "in vivo, ICR mice",
  "key": {"[1]": {"test_system": "Staphylococcus aureus", "test": "Therapeutic test of injection on mice with systemic infection, survival time", "conditions": "for Mean survival Time: observed fourteen days; for Mean survival Time / Mortality of mice in different days after infection: n = 10", "excerpt": "(§1) There are 30 male and 30 female ICR mice with the weight ranging from 18 g to 22 g. According to their weight, they are randomly divided into 6 groups of 10 mice: blank control group, negative control group, Levofloxacin positive control group, PL-13 (SEQ ID NO: 1) high dose group, PL-13 (SEQ ID NO: 1) middle dose group and PL-13 (SEQ ID NO: 1) low dose group. Each group is raised in the same plastic case. With trinitrophenal marking method, all the mice are raised with ordinary animal feeds in the ordinary animal houses and they can drink water freely. Alternating of light and dark is conducted every 12 hours.\n(§2) 2. Infected Strains: Pseudomonas aeruginosa and Staphylococcus aureus\n(§3) PL-18 (SEQ ID NO: 1) freeze-dried powder injections (supplied by Jiangsu ProteLight Pharmaceutical & Biotechnology Co., LTD.), Levofloxacin Hydrochloride and Sodium Chloride Injection (supplied by Yangtze River Pharmaceutical Group) and 0.9% Sodium Chloride Injection (supplied by Chifeng Rongjitang Pharmaceutical CO., Ltd.)\n(§4) (1) The preparation of bacterial suspension is the same as above.\n(§5) (2) The Pseudomonas aeruginosa suspension cultured overnight is diluted to 1×10^9CFU/ml. The Staphylococcus aureus suspension cultured overnight is diluted to 1×10^8CFU/ml. They are all applied in reserve.\n(§6) (3) Except the blank control group, every other mouse is injected with 0.2 ml Pseudomonas aeruginosa suspension with the concentration of 1×10^9CFU/ml or 0.2 ml Staphylococcus aureus suspension with the concentration of 1×10^8CFU/ml intraperitoneally to make model.\n(§7) (4) Administration: Inject the drugs according to weight right after the model is ready. All the groups excepting the blank and the negative infected group are injected with different dosage of different injections through caudal vena twice a day successively for three days, and they are observed for fourteen days.\n(§8) (5) Observe death of the animals and record their survival time."}, "[2]": {"test_system": "Pseudomonas aeruginosa", "test": "Therapeutic test of injection on mice with systemic infection, survival time", "conditions": "for Mean survival Time: observed fourteen days; for Mean survival Time / Mortality of mice in different days after infection: n = 10", "excerpt": "as §1, §2, §3, §4, §5, §6, §7, §8"}, "[3]": {"test_system": "Staphylococcus aureus ATCC25923", "test": "Anti-infection test of externally-applied agent on skin, viable count", "conditions": "for viable count, Liver (1:5) / viable count, Skin (1:10) / viable count, Spleen (1:5) / viable count, Whole blood: 0.1 ml morning and evening for 7 days, n = 10", "excerpt": "(§9) 1. Experimental Strains: Staphylococcus epidermidis ATCC12228 and Staphylococcus aureus ATCC25923\n(§10) There are 50 male ICR mice with the weight of 20±2 g. According to their weight, they are randomly divided into 5 groups of 10 mice: negative infected control group, Bactroban positive control group, 1% concentration cream group, 1‰ concentration cream group and blank ground substance group. Each group is raised in the same plastic case. Their blank parts, heads, necks, backs and tails are marked with picric acid marking method. All the mice are raised with ordinary animal feeds in the ordinary animal houses and they could drink water freely. Alternating of light and dark is conducted every 12 hours.\n(§11) There are preparation of 1% concentration, 1‰ concentration, and blank ground substance preparation (supplied by Jiangsu ProteLight Pharmaceutical & Biotechnology Co., LTD.) and Bactroban (supplied by SK&F).\n(§12) (1) The bacteria strains which preserved in liquid nitrogen are inoculated to MHB plate and cultured overnight at 37° C.\n(§13) (2) The solid strains are inoculated to MHB liquid medium and overnight cultured shakily at the speed of 220 rpm at 37° C.\n(§14) (3) The bacterial suspension cultured overnight is diluted to 5×10^6CFU/ml and applied in reserve.\n(§15) (4) Skin modeling: Mice's back are sheared and depilated by depilatory paste. After the hair off, they are abraded with 0.3 mm-long sandpaper to bleeding and injected 0.1 ml bacterial suspension with the concentration of 5×10^6CFU/ml subcutaneously.\n(§16) (5) Administration: All the groups except the negative infected control group are respectively applied different cream with the dosage of 0.1 ml once respectively in the morning and evening for 7 days.\n(§17) (6) After 7 days, the visceral organs, blood and infected skin of mice are collected by aseptic method to count viable bacteria."}, "[4]": {"test_system": "Staphylococcus epidermidis ATCC12228", "test": "Anti-infection test of externally-applied agent on skin, viable count", "conditions": "for viable count, Liver (1:5) / viable count, Skin (1:10) / viable count, Spleen (1:5) / viable count, Whole blood: 0.1 ml morning and evening for 7 days, n = 10", "excerpt": "as §9, §10, §11, §12, §13, §14, §15, §16, §17"}, "[5]": {"conditions": "0.2 mg/kg (low) caudal vena twice a day for three days"}, "[6]": {"conditions": "1 mg/kg (middle) caudal vena twice a day for three days"}, "[7]": {"conditions": "5 mg/kg (high) caudal vena twice a day for three days"}, "[8]": {"conditions": "day 1, 0.2 mg/kg (low) caudal vena twice a day for three days"}, "[9]": {"conditions": "day 1, 1 mg/kg (middle) caudal vena twice a day for three days"}, "[10]": {"conditions": "day 1, 5 mg/kg (high) caudal vena twice a day for three days"}, "[11]": {"conditions": "day 2, 0.2 mg/kg (low) caudal vena twice a day for three days"}, "[12]": {"conditions": "day 2, 1 mg/kg (middle) caudal vena twice a day for three days"}, "[13]": {"conditions": "day 2, 5 mg/kg (high) caudal vena twice a day for three days"}, "[14]": {"conditions": "day 3, 0.2 mg/kg (low) caudal vena twice a day for three days"}, "[15]": {"conditions": "day 3, 1 mg/kg (middle) caudal vena twice a day for three days"}, "[16]": {"conditions": "day 3, 5 mg/kg (high) caudal vena twice a day for three days"}, "[17]": {"conditions": "day 4, 0.2 mg/kg (low) caudal vena twice a day for three days"}, "[18]": {"conditions": "day 4, 1 mg/kg (middle) caudal vena twice a day for three days"}, "[19]": {"conditions": "day 4, 5 mg/kg (high) caudal vena twice a day for three days"}, "[20]": {"conditions": "day 5, 0.2 mg/kg (low) caudal vena twice a day for three days"}, "[21]": {"conditions": "day 5, 1 mg/kg (middle) caudal vena twice a day for three days"}, "[22]": {"conditions": "day 5, 5 mg/kg (high) caudal vena twice a day for three days"}},
  "note": "Marks after values point to notes of the source that are not given here. Non-standard residues stand in square brackets, D forms with d. Residues, ends and D or L forms follow the SMILES beside them.",
  "data": [
    {"smiles": "CC(=O)N[C@H](Cc1ccccc1)C(=O)N[C@H](CCCCN)C(=O)N[C@H](CCCCN)C(=O)N[C@H](CC(C)C)C(=O)N[C@H](CCCCN)C(=O)N[C@H](CCCCN)C(=O)N[C@H](CC(C)C)C(=O)N[C@H](Cc1ccccc1)C(=O)N[C@H](CO)C(=O)N[C@H](CCCCN)C(=O)N[C@H](CC(C)C)C(=O)N[C@H](Cc1c[nH]c2ccccc12)C(=O)N[C@H](CC(N)=O)C(=O)N[C@H](Cc1c[nH]c2ccccc12)C(=O)N[C@H](CCCCN)C(N)=O", "note": "[PL-18] (Ac-[dF][dK][dK][dL][dK][dK][dL][dF][dS][dK][dL][dW][dN][dW][dK]-NH2)", "values": [
      {"measurement": "Mean survival Time", "setting": "[1]; [5]", "value": "6.3** day"},
      {"measurement": "Mean survival Time", "setting": "[1]; [6]", "value": "7.3** day"},
      {"measurement": "Mean survival Time", "setting": "[1]; [7]", "value": "9.9** day"},
      {"measurement": "Mortality of mice in different days after infection", "setting": "[1]; [8]", "value": 1},
      {"measurement": "Mortality of mice in different days after infection", "setting": "[1]; [9]", "value": 1},
      {"measurement": "Mortality of mice in different days after infection", "setting": "[1]; [10]", "value": 0},
      {"measurement": "Mortality of mice in different days after infection", "setting": "[1]; [11]", "value": 2},
      {"measurement": "Mortality of mice in different days after infection", "setting": "[1]; [12]", "value": 2},
      {"measurement": "Mortality of mice in different days after infection", "setting": "[1]; [13]", "value": 1},
      {"measurement": "Mortality of mice in different days after infection", "setting": "[1]; [14]", "value": 1},
      {"measurement": "Mortality of mice in different days after infection", "setting": "[1]; [15]", "value": 1},
      {"measurement": "Mortality of mice in different days after infection", "setting": "[1]; [16]", "value": 1},
      {"measurement": "Mortality of mice in different days after infection", "setting": "[1]; [17]", "value": 2},
      {"measurement": "Mortality of mice in different days after infection", "setting": "[1]; [18]", "value": 1},
      {"measurement": "Mortality of mice in different days after infection", "setting": "[1]; [19]", "value": 1},
      {"measurement": "Mortality of mice in different days after infection", "setting": "[1]; [20]", "value": 1},
      {"measurement": "Mortality of mice in different days after infection", "setting": "[1]; [21]", "value": 1},
      {"measurement": "Mortality of mice in different days after infection", "setting": "[1]; [22]", "value": 2},
      {"measurement": "anti-infection effect (in words)", "setting": "[1]; high, middle and low dose injection, systemic infection of Staphylococcus aureus", "value": "very good"},
      {"measurement": "Mean survival Time", "setting": "[2]; [5]", "value": "6.7** day"},
      {"measurement": "Mean survival Time", "setting": "[2]; [6]", "value": "7.7** day"},
      {"measurement": "Mean survival Time", "setting": "[2]; [7]", "value": "8.6** day"},
      {"measurement": "Mortality of mice in different days after infection", "setting": "[2]; [8]", "value": 0},
      {"measurement": "Mortality of mice in different days after infection", "setting": "[2]; [9]", "value": 0},
      {"measurement": "Mortality of mice in different days after infection", "setting": "[2]; [10]", "value": 0},
      {"measurement": "Mortality of mice in different days after infection", "setting": "[2]; [11]", "value": 2},
      {"measurement": "Mortality of mice in different days after infection", "setting": "[2]; [12]", "value": 1},
      {"measurement": "Mortality of mice in different days after infection", "setting": "[2]; [13]", "value": 1},
      {"measurement": "Mortality of mice in different days after infection", "setting": "[2]; [14]", "value": 1},
      {"measurement": "Mortality of mice in different days after infection", "setting": "[2]; [15]", "value": 2},
      {"measurement": "Mortality of mice in different days after infection", "setting": "[2]; [16]", "value": 2},
      {"measurement": "Mortality of mice in different days after infection", "setting": "[2]; [17]", "value": 2},
      {"measurement": "Mortality of mice in different days after infection", "setting": "[2]; [18]", "value": 2},
      {"measurement": "Mortality of mice in different days after infection", "setting": "[2]; [19]", "value": 2},
      {"measurement": "Mortality of mice in different days after infection", "setting": "[2]; [20]", "value": 2},
      {"measurement": "Mortality of mice in different days after infection", "setting": "[2]; [21]", "value": 1},
      {"measurement": "Mortality of mice in different days after infection", "setting": "[2]; [22]", "value": 0},
      {"measurement": "anti-infection effect (in words)", "setting": "[2]; high, middle and low dose injection, systemic infection of Pseudomonas aeruginosa", "value": "very good"},
      {"measurement": "viable count, Liver (1:5)", "setting": "[3]; 1% externally-applied agent", "value": 9, "unit": "CFU/plate"},
      {"measurement": "viable count, Skin (1:10)", "setting": "[3]; 1% externally-applied agent", "value": 997, "unit": "CFU/plate"},
      {"measurement": "viable count, Spleen (1:5)", "setting": "[3]; 1% externally-applied agent", "value": 8, "unit": "CFU/plate"},
      {"measurement": "viable count, Whole blood", "setting": "[3]; 1% externally-applied agent", "value": 16, "unit": "CFU/plate"},
      {"measurement": "viable count, Liver (1:5)", "setting": "[3]; 1‰ externally-applied agent", "value": 11, "unit": "CFU/plate"},
      {"measurement": "viable count, Skin (1:10)", "setting": "[3]; 1‰ externally-applied agent", "value": 1051, "unit": "CFU/plate"},
      {"measurement": "viable count, Spleen (1:5)", "setting": "[3]; 1‰ externally-applied agent", "value": 15, "unit": "CFU/plate"},
      {"measurement": "viable count, Whole blood", "setting": "[3]; 1‰ externally-applied agent", "value": 12, "unit": "CFU/plate"},
      {"measurement": "inhibition of skin infection (in words)", "setting": "[3]; externally-applied agent, twice daily for 7 days, Staphylococcus aureus", "value": "effective"},
      {"measurement": "viable count, Liver (1:5)", "setting": "[4]; 1% externally-applied agent", "value": 17, "unit": "CFU/plate"},
      {"measurement": "viable count, Skin (1:10)", "setting": "[4]; 1% externally-applied agent", "value": 276, "unit": "CFU/plate"},
      {"measurement": "viable count, Spleen (1:5)", "setting": "[4]; 1% externally-applied agent", "value": 5, "unit": "CFU/plate"},
      {"measurement": "viable count, Whole blood", "setting": "[4]; 1% externally-applied agent", "value": 16, "unit": "CFU/plate"},
      {"measurement": "viable count, Liver (1:5)", "setting": "[4]; 1‰ externally-applied agent", "value": 8, "unit": "CFU/plate"},
      {"measurement": "viable count, Skin (1:10)", "setting": "[4]; 1‰ externally-applied agent", "value": 425, "unit": "CFU/plate"},
      {"measurement": "viable count, Spleen (1:5)", "setting": "[4]; 1‰ externally-applied agent", "value": 13, "unit": "CFU/plate"},
      {"measurement": "viable count, Whole blood", "setting": "[4]; 1‰ externally-applied agent", "value": 19, "unit": "CFU/plate"},
      {"measurement": "inhibition of skin infection (in words)", "setting": "[4]; externally-applied agent, twice daily for 7 days, Staphylococcus epidermidis", "value": "effective"}
    ]}
  ]
}
